The source of these data is patent EP2269977B1, “Inhibitors of the 11-beta-hydroxysteroid dehydrogenase Type 1 enzyme” (AbbVie Inc., priority 2005, dated 2006).

The structures appear in SMILES notation.

Data set [1] in a line: Metabolic stability screen in mouse liver microsomes. Format: in vitro ADME. The note with it: substrate 10 µM, microsomal protein 0.1- 0.5 mg/ml, 1mM NADPH, pH 7.4, 37°C, 30 min incubation, LC/MS, read-out: Mouse Liver Microsomal Turnover. As to the method: (§1) Metabolic stability screen: each substrate (10 µM) was incubated with microsomal protein (0.1- 0.5 mg/ml) in 50mM potassium phosphate buffer (pH 7.4) in 48-Well plate. The enzyme reaction was initiated by the addition of 1mM NADPH, then incubated at 37°C in a Forma Scientific incubator (Marietta, OH, USA) with gentle shaking. The reactions were quenched by the addition of 800 µl of ACN/MeOH (1:1, v/v), containing 0.5 µM of internal standard (IS), after 30 min incubation. Samples were then filtered by using Captiva 96-Well Filtration (Varian, Lake Forest, CA, USA) and analyzed by LC/MS (mass spectrometry). Liver microsomal incubations were conducted in duplicate.
(§2) The parent remaining in the incubation mixture was determined by LC/MS. […] A Luna C8(2) (50 x 2.0 mm, particle size 3 µm, Phenomenex, Torrance, CA, USA) was used to quantify each compound at ambient temperature. […]
(§3) The peak area ratios (each substrate over IS) at each incubation time were expressed as the percentage of the ratios (each substrate over IS) of the control samples (0 min incubation). The parent remaining in the incubation mixture was expressed as the percentage of the values at 0 min incubation. The percentage turnover is calculated using the following equation (%turnover =[…] - %parent remaining) and is recorded as the percentage turnover in the Table 2. […]

The nature of data set [2]: Metabolic stability screen in human liver microsomes. The note with it: substrate 10 µM, microsomal protein 0.1- 0.5 mg/ml, 1mM NADPH, pH 7.4, 37°C, 30 min incubation, LC/MS, read-out: Human Liver Microsomal Turnover. It counts as in vitro ADME. As for the experimental part: as §1, §2, §3
On the technique in general: Liver microsomes are a subcellular fraction often used to study metabolism.

In the case of `CC(C)(Oc1ccc(Cl)cc1)C(=O)NC1C2CC3CC(C2)CC1C3` (centres unmarked) [EE, N-adamantan-2-yl-2-(4-chloro-phenoxy)-2-methyl-propionamide], the metabolised at 0.5 h, 10 µM in data set [1] was 86%; in data set [2], 88%.
